Target: T1, human GluR2 flip (unedited) AMPA receptor subunit (Homo sapiens, UniProt P42262)
T1 construct: expressed in transfected cells
Experiment: Calcium influx fluorescence assay (FLUO4, potentiation of glutamate response)
Format: cell-based
Details: Assay a); HEK 293 cells expressing human GluR2 flip (unedited); 100 μM glutamate final; peak fluorescence
Method: The ability of the compounds of the invention to potentiate glutamate receptor-mediated response were determined a) by using fluorescent calcium-indicator dyes such as FLUO4 and b) by measuring glutamate-evoked current recorded from human GluR2 flip unedited HEK293 cells.
a) Calcium Influx Fluorescence Assay
384 well plates were prepared containing confluent monolayer of HEK 293 cells either stably expressing or transiently transfected with human GluR2 flip (unedited) AMPA receptor subunit. These cells form functional homotetrameric AMPA receptors. […]
The cell plate was then transferred into a fluorescence imaging plate based reader [such as the FLIPR384 (Molecular Devices)]. A baseline fluorescence reading was taken over a 10 to 240 second period, and then 10 μL from each plate containing a compound of the invention made up in standard buffer solution (in a concentration range from 100 μM to 10 pM) was added (to give a final concentration in the range 30 μM to 3 pM). The fluorescence was read over 5 minute period. […] The fluoresecence was then read over a 4 minute period. The activities of the compounds of the invention and reference compounds were determined by measuring peak fluorescence after the last addition. The activity can also be expressed relative to the fluorescence increase induced by cyclothiazide at their maximum response (i.e. greater than 30 μM).

T1 sequence (P42262 25-883 isoform P42262-2 limits assumed): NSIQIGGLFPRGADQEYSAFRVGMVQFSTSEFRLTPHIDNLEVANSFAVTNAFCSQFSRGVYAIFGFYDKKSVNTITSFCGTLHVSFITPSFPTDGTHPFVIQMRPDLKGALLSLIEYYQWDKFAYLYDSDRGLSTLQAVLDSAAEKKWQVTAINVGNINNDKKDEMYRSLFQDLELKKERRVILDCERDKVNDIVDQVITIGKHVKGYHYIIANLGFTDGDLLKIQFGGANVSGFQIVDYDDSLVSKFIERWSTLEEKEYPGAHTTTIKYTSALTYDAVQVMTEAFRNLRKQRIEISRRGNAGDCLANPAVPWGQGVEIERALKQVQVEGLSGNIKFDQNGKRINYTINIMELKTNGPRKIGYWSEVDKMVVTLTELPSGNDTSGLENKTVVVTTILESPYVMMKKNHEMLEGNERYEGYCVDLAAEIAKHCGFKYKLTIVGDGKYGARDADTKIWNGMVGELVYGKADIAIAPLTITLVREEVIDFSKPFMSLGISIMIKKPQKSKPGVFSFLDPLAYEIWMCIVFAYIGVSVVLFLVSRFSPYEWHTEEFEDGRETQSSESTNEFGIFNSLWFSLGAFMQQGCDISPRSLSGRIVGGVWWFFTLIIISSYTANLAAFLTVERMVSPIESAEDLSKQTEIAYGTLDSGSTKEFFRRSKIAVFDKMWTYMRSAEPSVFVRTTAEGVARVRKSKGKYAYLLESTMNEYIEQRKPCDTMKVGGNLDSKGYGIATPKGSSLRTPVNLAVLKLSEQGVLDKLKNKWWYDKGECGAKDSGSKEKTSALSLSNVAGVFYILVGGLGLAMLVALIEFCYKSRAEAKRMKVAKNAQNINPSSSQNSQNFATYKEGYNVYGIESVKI

In the case of CCS(=O)(=O)Nc1cccc(-c2ccc3c(c2)CC(NS(=O)(=O)C(C)C)C3)c1 (stereo not shown) [Example 6, N-(5-{3-[(ethylsulfonyl)amino]phenyl}-2,3-dihydro-1H-inden-2-yl)-2-propanesulfonamide], the EC50 is reported as 3.16 µM.
